Measurements taken from patent US8420676B2, “Oxazolidinone derivatives” (Dong-A Pharmaceuticals Co. Ltd., priority 2003, dated 2013).
≈ marks a conversion by molar mass, not a printed value.

How the values were obtained:
[1] = test system: methicillin resistant Staphylococcus aureus (MRSA); experiment: Assay for in vitro antibacterial activity, agar dilution (MRSA); conditions: read-out: Minimum Inhibitory Concentration (MIC50) MRSA
[2] = test system: vancomycin resistant Enterococci (VRE); experiment: Assay for in vitro antibacterial activity, agar dilution (VRE); conditions: Enterococcus, read-out: Minimum Inhibitory Concentration (MIC50) VRE

Row | MIC50 [1] | MIC50 [2] | Compound
1 | 0.5 µg/mL (≈ 1.11 µM) | 0.5 µg/mL (≈ 1.11 µM) | CC(=O)NC[C@H]1CN(c2ccc(-c3ccc(-c4nc(CC#N)cs4)cc3)c(F)c2)C(=O)O1 [Compound 31, (S)-3-(4-(4-(4-cyanomethylthiazol-2-yl)phenyl)-3-fluorophenyl)-2-oxo-5-oxazolidinylmethyl acetamide]
2 | 0.5 µg/mL (≈ 1.22 µM) | 1 µg/mL (≈ 2.44 µM) | N#CCc1csc(-c2ccc(-c3ccc(N4C[C@H](CO)OC4=O)cc3F)cc2)n1 [Compound 32, (R)-3-(4-(4-(4-cyanomethylthiazol-2-yl)phenyl)-3-fluorophenyl)-5-hydroxymethyl oxazolidin-2-one]
3 | 2 µg/mL (≈ 5.2 µM) | 2 µg/mL (≈ 5.2 µM) | COC[C@H]1CN(c2ccc(-c3ccc(-c4nnn(C)n4)nc3)c(F)c2)C(=O)O1 [Compound 33, (R)-3-(4-(2-(2-methyltetrazol-5-yl)pyridin-5-yl)-3-fluorophenyl)-5-methoxymethyl oxazolidin-2-one]
4 | 0.5 µg/mL (≈ 1.11 µM) | 0.5 µg/mL (≈ 1.11 µM) | O=C1O[C@@H](Cn2ccnn2)CN1c1ccc(-c2ccc(-c3nc(CO)cs3)cc2)c(F)c1 [Compound 36, (R)-3-(4-(4-(4-hydroxymethylthiazol-2-yl)phenyl)-3-fluorophenyl)-5-([1,2,3]triazol-1-yl)methyl oxazolidin-2-one]
5 | 0.5 µg/mL (≈ 1.29 µM) | 1 µg/mL (≈ 2.58 µM) | Cn1nnc(-c2ccc(-c3c(F)cc(N4C[C@H](CO)OC4=O)cc3F)cn2)n1 [Compound 38, (R)-3-(4-(2-(2-methyltetrazol-5-yl)pyridin-5-yl)-3,5-difluorophenyl)-5-hydroxymethyl oxazolidin-2-one]
6 | 1 µg/mL (≈ 2.58 µM) | 1 µg/mL (≈ 2.58 µM) | Cc1nnc(-c2ccc(-c3c(F)cc(N4C[C@H](CO)OC4=O)cc3F)cn2)o1 [Compound 39, (R)-3-(4-(2-(2-methyl-[1,3,4]oxadiazol-5-yl)pyridin-5-yl)-3,5-difluorophenyl)-5-hydroxymethyl oxazolidin-2-one]
7 | 4 µg/mL (≈ 10.4 µM) | 8 µg/mL (≈ 20.9 µM) | CNC[C@H]1CN(c2ccc(-c3ccc(-c4nnn(C)n4)nc3)c(F)c2)C(=O)O1 [Compound 41]
8 | 0.5 µg/mL (≈ 1.35 µM) | 0.25 µg/mL (≈ 0.675 µM) | Cn1nnnc1-c1ccc(-c2ccc(N3C[C@H](CO)OC3=O)cc2F)cn1 [Compound 61, (R)-3-(4-(2-(1-methyltetrazol-5-yl)pyridin-5-yl)-3-fluorophenyl)-5-hydroxymethyl oxazolidin-2-one]

Row | Compound | MIC50 [1] | MIC50 [2]
9 | N#CCc1csc(-c2ccc(-c3ccc(N4C[C@H](COC(=O)CN)OC4=O)cc3F)cc2)n1 [Compound 34, (R)-3-(4-(4-(4-cyanomethylthiazol-2-yl)phenyl)-3-fluorophenyl)-5-glycyloxymethyl oxazolidin-2-one trifluoroacetic acid] | 1 µg/mL (≈ 2.14 µM) | 1 µg/mL (≈ 2.14 µM)
10 | NCC(=O)OC[C@H]1CN(c2ccc(-c3ccc(-n4nccn4)nc3)c(F)c2)C(=O)O1 [Compound 35, (R)-3-(4-(2-([1,2,3]triazol-2-yl)pyridin-5-yl)-3-fluorophenyl)-5-glycyloxymethyl oxazolidin-2-one trifluoroacetic acid] | 1 µg/mL (≈ 2.42 µM) | 1 µg/mL (≈ 2.42 µM)
11 | NCC(=O)OCc1csc(-c2ccc(-c3ccc(N4C[C@H](Cn5ccnn5)OC4=O)cc3F)cc2)n1 [Compound 37, (R)-3-(4-(4-(4-glycyloxymethylthiazol-2-yl)phenyl)-3-fluorophenyl)-5-([1,2,3]triazol-1-yl)methyl oxazolidin-2-one trifluoroacetic acid] | 0.5 µg/mL (≈ 0.983 µM) | 0.5 µg/mL (≈ 0.983 µM)
12 | Cl.Cn1nnnc1-c1ccc(-c2ccc(N3C[C@H](COC(=O)CN)OC3=O)cc2F)cn1 [Compound 63, (R)-3-(4-(2-(1-methyltetrazol-5-yl)pyridin-5-yl)-3-fluorophenyl)-5-glycyloxymethyl oxazolidin-2-one hydrochloride] | 0.5 µg/mL | 0.25 µg/mL
13 | C[C@H](N)C(=O)OC[C@H]1CN(c2ccc(-c3ccc(-c4nnnn4C)nc3)c(F)c2)C(=O)O1.Cl [Compound 65, (R)-3-(4-(2-(1-methyltetrazol-5-yl)pyridin-5-yl)-3-fluorophenyl)-5-(L-alanyloxy)methyl oxazolidin-2-one hydrochloride] | 0.5 µg/mL | 0.25 µg/mL
